Data as given in patent US11028090B2 (Dong Wha Pharm. Co., Ltd., priority 2017, dated 2021).
Where two headings read alike, the source gives them in different places.

Key:
[1] = test system: thymus cancer cells (Ty-82 cells); experiment: Cytotoxicity to thymus cancer cells (Ty-82 cells), WST-1; settings: Homo sapiens, TY82, 72 h
Description: The following experiment was performed to evaluate the cytotoxicity of [1,2,4]triazolo[4,3-a]quinoxaline derivative according to the present invention to thymus cancer cells (Ty-82 cells).
First, thymus cancer cells (Ty-82 cells) were distributed in a 96 well plate at the density of 2.5×10^4 cells/well. 24 hours later, the plated cells were treated with the compounds of the present invention dissolved in DMSO at the different concentrations ranging from 0.01 μM to 10 μM. 72 hours later, the activities of the compounds were determined using WST-1 reagent.

[2] = test system: acute myelogenous leukemia cells (MV-4-11 cells); experiment: Cytotoxicity to acute myelogenous leukemia cells (MV-4-11 cells), CCK-8; settings: Homo sapiens, MV4-11, 72 h
[3] = molecular target: BRD4 (BD1+BD2) bromodomain (Homo sapiens (Human), UniProt O60885); experiment: BRD4 binding inhibition (AlphaScreen, GST-BRD4 vs tetraacetylated histone H4 peptide)
Outline: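 GST-BRD4 (BD1+BD2) and biotinylated tetraacetyl-histone H4 peptide, each at 100 nM in HEPES pH 7.4 buffer with BSA and DTT, were combined with compound. Glutathione acceptor and streptavidin donor beads were added, then incubated 30 min at room temperature in the dark. Read-out was AlphaScreen signal.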

[4] = read-out: Ty-82 Cytotoxicity IC50
[5] = read-out: MV-4-11 Cytotoxicity IC50
[6] = GST-BRD4 (BD1+BD2) / biotinylated acetyl-histone H4 (Lys5,8,12,16) peptide, read-out: IC50, BRD4 binding inhibition
[7] = GST-BRD4 (BD1+BD2) vs biotinylated acetyl-histone H4 peptide, AlphaScreen, read-out: BRD4 IC50
[8] = read-out: IC50, cytotoxicity against thymus cancer cells
[9] = read-out: IC50, cytotoxicity against acute myelogenous leukemia cells

Question: `Cc1nnc2c(NCCCCNC(=O)c3ccccc3)nc3ccccc3n12` [Example 11, N-[4-(1-methyl-[1,2,4]triazolo[4,3-a]quinoxaline-4-ylamino)-butyl]-benzamide] was tested. Which IC50 [1, 4] did it give?
Answer: 950 nM

Question: And the IC50 [2, 5]?
Answer: 710 nM

Question: `COc1cc2nc(NCCCCNC(=O)OC(C)(C)C)c3nnc(C)n3c2cc1OC` [Example 57, [4-(7,8-dimethoxy-1-methyl-[1,2,4]triazolo[4,3-a]quinoxaline-4-ylamino)-butyl]-carbamic acid-tert-butylester] was tested. Which IC50 [3, 6] did it give?
Answer: ≤ 50 nM

Question: And the IC50 [3, 7]?
Answer: 20 nM

Question: And the IC50 [1, 4]?
Answer: 740 nM

Question: And the IC50 [2, 5]?
Answer: 760 nM

Question: With `COc1cc2nc(NCCCCNC(=O)C(C)(C)C)c3nnc(C)n3c2cc1OC` [Example 59, N-[4-(7,8-dimethoxy-1-methyl-[1,2,4]triazolo[4,3-a]quinoxaline-4-ylamino)-butyl]-2,2-dimethyl-propionamide] as the compound, how does the IC50 [3, 6] read?
Answer: ≤ 50 nM

Question: And the IC50 [3, 7]?
Answer: 34 nM

Question: What about the IC50 [1, 8] of the same compound?
Answer: ≤ 500 nM

Question: And the IC50 [1, 4]?
Answer: 420 nM

Question: And the IC50 [2, 5]?
Answer: 310 nM

Question: For `COc1cc2nc(NCCCCNC(=O)OC(C)C)c3nnc(C)n3c2cc1OC` [Example 60, [4-(7,8-dimethoxy-1-methyl-[1,2,4]triazolo[4,3-a]quinoxaline-4-ylamino)-butyl]-carbamic acid isopropylester], which IC50 [3, 6] is on record?
Answer: ≤ 50 nM

Question: And the IC50 [3, 7]?
Answer: 12 nM

Question: What about the IC50 [1, 8] of the same compound?
Answer: ≤ 500 nM

Question: What about the IC50 [1, 4] of the same compound?
Answer: 120 nM

Question: And the IC50 [2, 9]?
Answer: ≤ 200 nM

Question: What about the IC50 [2, 5] of the same compound?
Answer: 10 nM

Question: `COc1cc2nc(NCCCCNC(=O)OCC(C)C)c3nnc(C)n3c2cc1OC` [Example 62, [4-(7,8-dimethoxy-1-methyl-[1,2,4]triazolo[4,3-a]quinoxaline-4-ylamino)-butyl]-carbamic acid isobutylester] was tested. Which IC50 [3, 6] did it give?
Answer: ≤ 10 nM

Question: What about the IC50 [3, 7] of the same compound?
Answer: 7 nM

Question: What about the IC50 [1, 8] of the same compound?
Answer: ≤ 500 nM

Question: What about the IC50 [1, 4] of the same compound?
Answer: 290 nM

Question: And the IC50 [2, 9]?
Answer: ≤ 200 nM

Question: What about the IC50 [2, 5] of the same compound?
Answer: 120 nM

Question: For `C=CCOC(=O)NCCCCNc1nc2cc(OC)c(OC)cc2n2c(C)nnc12` [Example 65, [4-(7,8-dimethoxy-1-methyl-[1,2,4]triazolo[4,3-a]quinoxaline-4-ylamino)-butyl]-carbamic acid allylester], which IC50 [3, 6] is on record?
Answer: ≤ 50 nM

Question: And the IC50 [3, 7]?
Answer: 22 nM

Question: What about the IC50 [1, 8] of the same compound?
Answer: ≤ 500 nM

Question: What about the IC50 [1, 4] of the same compound?
Answer: 370 nM

Question: What about the IC50 [2, 9] of the same compound?
Answer: ≤ 200 nM

Question: What about the IC50 [2, 5] of the same compound?
Answer: 130 nM

Question: How did the IC50 [3, 6] turn out when `COc1cc2nc(NCCCCNC(=O)OC3CCCC3)c3nnc(C)n3c2cc1OC` [Example 66, [4-(7,8-dimethoxy-1-methyl-[1,2,4]triazolo[4,3-a]quinoxaline-4-ylamino)-butyl]-carbamic acid cyclopentyl-ester] was run?
Answer: ≤ 50 nM

Question: What about the IC50 [3, 7] of the same compound?
Answer: 13 nM

Question: And the IC50 [1, 8]?
Answer: ≤ 500 nM

Question: What about the IC50 [1, 4] of the same compound?
Answer: 58 nM

Question: And the IC50 [2, 9]?
Answer: ≤ 200 nM

Question: And the IC50 [2, 5]?
Answer: 110 nM

Question: What does the source list for `COc1cc2nc(NCCCCNC(=O)Oc3ccccc3)c3nnc(C)n3c2cc1OC` [Example 67, [4-(7,8-dimethoxy-1-methyl-[1,2,4]triazolo[4,3-a]quinoxaline-4-ylamino)-butyl]-carbamic acid phenylester]?
Answer: IC50 [3, 7]: 19 nM; IC50 ([3]; IC50, BRD4 binding inhibition, GST-BRD4 (BD1+BD2) / biotinylated acetyl-histone H4 (Lys5,8,12,16) peptide): ≤ 50 nM; IC50 [1, 8]: ≤ 500 nM; IC50 [1, 4]: 170 nM; IC50 [2, 9]: ≤ 200 nM; IC50 [2, 5]: 140 nM

Question: Which IC50 [3, 6] does the source give for `COc1cccc2c1nc(NCCCCNC(=O)OCC(C)C)c1nnc(C)n12` [Example 120, N-[4-(6-methoxy-1-methyl-[1,2,4]triazolo[4,3-a]quinoxaline-4-ylamino)-butyl]-carbamic acid isobutylester] here?
Answer: ≤ 50 nM

Question: And the IC50 [3, 7]?
Answer: 34 nM

Question: What about the IC50 [1, 4] of the same compound?
Answer: 620 nM

Question: For `COc1ccc2nc(NCCCCNC(=O)c3ccccc3)c3nnc(C)n3c2c1` [Example 127, N-[4-(8-methoxy-1-methyl-[1,2,4]triazolo[4,3-a]quinoxaline-4-ylamino)-butyl]-benzamide], which IC50 [3, 6] is on record?
Answer: ≤ 50 nM

Question: And the IC50 [3, 7]?
Answer: 46 nM

Question: What about the IC50 [1, 4] of the same compound?
Answer: 620 nM

Question: What does the source list for `COc1ccc2nc(NCCCCNC(=O)c3ccc(C)nc3Cl)c3nnc(C)n3c2c1` [Example 129]?
Answer: IC50 [3, 6]: ≤ 50 nM; IC50 [3, 7]: 17 nM; IC50 [1, 4]: 830 nM

Question: Which IC50 [3, 6] does the source give for `COc1c(C)ccc2c1nc(NCCCCNC(=O)OC(C)C)c1nnc(C)n12` [Example 133, [4-(6-methoxy-1,7-dimethyl-[1,2,4]triazolo[4,3-a]quinoxaline-4-ylamino)-butyl]-carbamic acid isopropylester] here?
Answer: ≤ 50 nM

Question: And the IC50 [3, 7]?
Answer: 34 nM

Question: What about the IC50 [1, 4] of the same compound?
Answer: 880 nM

Question: Which results are given for `COCCOc1cc2nc(NCCCCNC(=O)c3ccccc3Cl)c3nnc(C)n3c2cc1OCCOC` [Example 171, N-{4-[7,8-bis-(2-methoxy-ethoxy)-1-methyl-[1,2,4]triazolo[4,3-a]quinoxaline-4-ylamino]-butyl}-2-chloro-benzamide]?
Answer: IC50 [3, 6]: ≤ 50 nM; IC50 [3, 7]: 26 nM; IC50 [1, 4]: 580 nM

Question: Which results are given for `COC(=O)c1ccc2c(c1)nc(NCCCCNC(=O)OC(C)(C)C)c1nnc(C)n12` [Example 197, 4-(4-tert-butoxycarbamoylamino-butylamino)-1-methyl-[1,2,4]triazolo[4,3-a]quinoxaline-7-carboxylic acid methylester]?
Answer: IC50 [3, 6]: ≤ 50 nM; IC50 [3, 7]: 28 nM; IC50 [1, 4]: 650 nM

Question: What does the source list for `Cc1nnc2c(NCCCCNC(=O)OC(C)(C)C)nc3cc(C(=O)NC(C)C)ccc3n12` [Example 202, [4-(7-isopropylcarbamoyl-1-methyl-[1,2,4]triazolo[4,3-a]quinoxaline-4-ylamino)-butyl]-carbamic acid-tert-butylester]?
Answer: IC50 [3, 6]: ≤ 50 nM; IC50 [3, 7]: 44 nM; IC50 [1, 4]: 640 nM

Question: What does the source list for `Cc1nnc2c(NCCCCNC(=O)c3ccccc3)nc3cc(C(=O)NC(C)C)ccc3n12` [Example 205, 4-(4-benzoylamino-butylamino)-1-methyl-[1,2,4]triazolo[4,3-a]quinoxaline-7-carboxylic acid isopropylamide]?
Answer: IC50 [3, 7]: 75 nM; IC50 [1, 4]: 550 nM

Question: What does the source list for `Cc1nnc2c(NCCCCNC(=O)OC(C)(C)C)nc3cc(C(=O)NCc4ccccc4)ccc3n12` [Example 210, [4-(7-benzylcarbamoyl-1-methyl-[1,2,4]triazolo[4,3-a]quinoxaline-4-ylamino)-butyl]-carbamic acid-tert-butylester]?
Answer: IC50 [3, 6]: ≤ 50 nM; IC50 [3, 7]: 18 nM; IC50 [1, 4]: 760 nM

Question: Which IC50 [3, 6] does the source give for `Cc1nnc2c(NCCCCNC(=O)OC(C)(C)C)nc3cc(C(=O)Nc4ccccc4)ccc3n12` [Example 212, [4-(1-methyl-7-phenylcarbamoyl-[1,2,4]triazolo[4,3-a]quinoxaline-4-ylamino)-butyl]-carbamic acid-tert-butylester] here?
Answer: ≤ 50 nM

Question: What about the IC50 [3, 7] of the same compound?
Answer: 35 nM

Question: What about the IC50 [1, 4] of the same compound?
Answer: 840 nM

Question: For `Cc1nnc2c(NCCCCNC(=O)OC(C)(C)C)nc3cc(NC(=O)C(C)C)ccc3n12` [Example 246, [4-(7-isobutyramido-1-methyl-[1,2,4]triazolo[4,3-a]quinoxaline-4-ylamino)-butyl]-carbamic acid-tert-butylester], which IC50 [3, 6] is on record?
Answer: ≤ 50 nM

Question: What about the IC50 [3, 7] of the same compound?
Answer: 23 nM

Question: What about the IC50 [1, 8] of the same compound?
Answer: ≤ 500 nM

Question: What about the IC50 [1, 4] of the same compound?
Answer: 490 nM

Question: What does the source list for `Cc1nnc2c(NCCCCNC(=O)C(C)(C)C)nc3cc(NC(=O)C(C)C)ccc3n12` [Example 247, N-[4-(7-isobutyramido-1-methyl-[1,2,4]triazolo[4,3-a]quinoxaline-4-ylamino)-butyl]-2,2-dimethyl-propionamide]?
Answer: IC50 [3, 6]: ≤ 50 nM; IC50 [3, 7]: 31 nM; IC50 [1, 8]: ≤ 500 nM; IC50 [1, 4]: 400 nM

Question: Which results are given for `Cc1nnc2c(NCCCCNC(=O)c3ccccc3)nc3cc(NC(=O)C(C)C)ccc3n12` [Example 248, N-[4-(7-isobutyramido-1-methyl-[1,2,4]triazolo[4,3-a]quinoxaline-4-ylamino)-butyl]-benzamide]?
Answer: IC50 [3, 7]: 54 nM; IC50 [1, 4]: 510 nM

Question: Which results are given for `CC(=O)Nc1ccc2c(c1)nc(NCCCCNC(=O)OC(C)(C)C)c1nnc(C)n12` [Example 249, [4-(7-acetylamino-methyl-[1,2,4]triazolo[4,3-a]quinoxaline-4-ylamino)-butyl]-carbamic acid-tert-butylester]?
Answer: IC50 [3, 6]: ≤ 50 nM; IC50 [1, 8]: ≤ 500 nM; IC50 [1, 4]: 400 nM

Question: `CC(=O)Nc1ccc2c(c1)nc(NCCCCNC(=O)C(C)(C)C)c1nnc(C)n12` [Example 250, N-[4-(7-acetylamino-methyl-[1,2,4]triazolo[4,3-a]quinoxaline-4-ylamino)-butyl]-2,2-dimethyl-propionamide] was tested. Which IC50 [3, 6] did it give?
Answer: ≤ 50 nM

Question: What about the IC50 [1, 8] of the same compound?
Answer: ≤ 500 nM

Question: What about the IC50 [1, 4] of the same compound?
Answer: 300 nM

Question: `CC(=O)Nc1ccc2c(c1)nc(NCCCCNC(=O)c1ccccc1)c1nnc(C)n12` [Example 251, N-[4-(7-acetylamino-methyl-[1,2,4]triazolo[4,3-a]quinoxaline-4-ylamino)-butyl]-benzamide] was tested. Which IC50 [3, 6] did it give?
Answer: ≤ 50 nM

Question: And the IC50 [1, 4]?
Answer: 680 nM

Question: How did the IC50 [1, 4] turn out when `COc1ccc2c(c1)nc(NCCCCNC(=O)C(C)(C)C)c1nnc(C)n12` [Example 277, N-[4-(7-methoxy-1-methyl-[1,2,4]triazolo[4,3-a]quinoxaline-4-ylamino)-butyl]-2,2-dimethyl-propionamide] was run?
Answer: 930 nM

Question: What about the IC50 [2, 5] of the same compound?
Answer: 550 nM

Question: Which results are given for `COc1cc2nc(NCCCCNC(=O)OC(C)(C)C)c3nnc(C)n3c2cc1C` [Example 464, [4-(7-methoxy-1,8-dimethyl-[1,2,4]triazolo[4,3-a]quinoxaline-4-ylamino)-butyl]-carbamic acid-tert-butylester]?
Answer: IC50 [3, 7]: 61 nM; IC50 [1, 4]: 790 nM

Question: `COc1cc2nc(NCCCCNC(=O)C(C)(C)C)c3nnc(C)n3c2cc1C` [Example 466] was tested. Which IC50 [1, 8] did it give?
Answer: ≤ 500 nM

Question: What about the IC50 [1, 4] of the same compound?
Answer: 340 nM

Question: And the IC50 [2, 9]?
Answer: ≤ 200 nM

Question: What about the IC50 [2, 5] of the same compound?
Answer: 83 nM

Question: What does the source list for `Cc1nnc2c(NCCCCC(=O)NCC(C)C)nc3ccccc3n12` [Example 660, 5-(1-methyl-[1,2,4]triazolo[4,3-a]quinoxaline-4-ylamino)-pentanoic acid isobutylamide]?
Answer: IC50 [3, 6]: ≤ 50 nM; IC50 [3, 7]: 36 nM; IC50 [1, 4]: 840 nM
